US20220162537A1, “FLUID SYSTEM FOR PRODUCING EXTRACELLULAR VESICLES COMPRISING A THERAPEUTIC OR IMAGING AGENT AND METHOD THEREOF” (CENTRE NATIONAL DE LA RECHERCHE SCIENTIFIQUE, priority 2018, published 2022)

Test system: HT29 tumors
Assay: HT29 tumor growth retardation after photodynamic therapy (Kaplan-Meier)
Format: in vivo, mice
Conditions: photodynamic therapy with laser activation
From the text: FIG. 8 illustrates Kaplan-Meier diagrams of HT29 tumor growth retardation after treatment with free mTHPC; the liposomal formulation of mTHPC (mTHPC Liposome) and mTHPC vesicles with laser activation of the drug (photodynamic therapy), compared to the same groups without laser activation (control, dotted lines).
FIG. 8 illustrates Kaplan-Meier diagrams of tumor growth retardation HT29 after treatment with free mTHPC; the liposomal formulation of mTHPC and mTHPC-EVs with laser activation of the drug (photodynamic therapy, three-dimensional therapies), compared to the same groups without laser activation (control, dotted lines). The inventors have compared the therapeutic effect of EVs mTHPC, the liposomal formulation of mTHPC and free mTHPC in terms of tumor growth, 90 days after treatment. […] Thus, compared to the liposomes, the charged vesicles of active agents obtained according to the methods of the present invention can constitute a very advantageous alternative both of the point of view of the pharmacodynamics properties and the effectiveness of the treatment carried out. The liposomes are known for the vectorization of various biomolecules such as enzymes, hormones, antisense oligonucleotides, ribozymes, proteins or DNA peptides, cancer molecules (Farjadian et al 2018). […]

## Oc1cccc(-c2c3nc(c(-c4cccc(O)c4)c4ccc([nH]4)c(-c4cccc(O)c4)c4nc(c(-c5cccc(O)c5)c5ccc2[nH]5)CC4)C=C3)c1 [mTHPC, meta-tetra (hydroxyphenyl) chlorin]
  percentage of tumors (growth 10 times higher criterion) at day 90: 20%
